The experiment relates to MCF7 multi-cell spheroids with HUVEC/MSC, viability. Briefly: Anticancer human tumor MCF7 cell line growth inhibition [IpAb].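 As to all read-outs here: spheroids exposed to agents for seven days before readout.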 To be noted: for viability, T/C: stronger effect = lower value. The method in brief: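 Multi-cell spheroids of 60% tumour cells, 25% HUVEC and 15% MSC in ultra-low-attachment U-bottom wells, treated with agents combined with ipatasertib or abemaciclib. Half-log ranges top out near clinical Cmax, or 10 microM when Cmax is unknown.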

Structures are written as SMILES. Where “and” joins values, the source holds several entries; their conditions need not be identical. Equal entries are not always repeated.

Usually IC50 stands for the midpoint of a concentration-inhibition curve. What is called viability, T/C is the ratio of treated to control. In the case of `CC(C)(C)c1cnc(CSc2cnc(NC(=O)C3CCNCC3)s2)o1` + CC(C)NCC(C(=O)N1CCN(c2ncnc3c2C(C)CC3O)CC1)c1ccc(Cl)cc1, the IC50 (curve of first compound, second compound 0.1 µM) was 89.4 nM; the IC50 (curve of first compound, second compound 0.316 µM) stood at 87.5 nM; the IC50 (curve of first compound, second compound 1 µM) was 81.1 nM; the IC50 (curve of first compound, second compound 3.16 µM) turned out to be 40.4 nM; the concentration for half-maximal inhibition (IC50) (curve of first compound, second compound 10 µM) was determined as 9.49 nM. The viability, T/C runs as follows: (second compound 0.1 µM, first compound 0.00949 µM) 87.9%; (second compound 0.1 µM, first compound 0.03 µM) 98%; (second compound 0.1 µM, first compound 0.0949 µM) 47.7%; (second compound 0.1 µM, first compound 0.3 µM) 22.2%; (second compound 0.1 µM, first compound 0.949 µM) 29.6%; (second compound 0.1 µM, first compound 3 µM) 32.6%. Moreover, the viability, T/C was 83.9% (second compound 0.316 µM, first compound 0.00949 µM); 87% (second compound 0.316 µM, first compound 0.03 µM); 47.3% (second compound 0.316 µM, first compound 0.0949 µM); 22.4% (second compound 0.316 µM, first compound 0.3 µM); 29% (second compound 0.316 µM, first compound 0.949 µM); 29.9% (second compound 0.316 µM, first compound 3 µM). Besides, the viability, T/C reads like this: (second compound 1 µM, first compound 0.00949 µM) 76.5%; (second compound 1 µM, first compound 0.03 µM) 75.6%; (second compound 1 µM, first compound 0.0949 µM) 45.9%; (second compound 1 µM, first compound 0.3 µM) 21.6%; (second compound 1 µM, first compound 0.949 µM) 25.3%; (second compound 1 µM, first compound 3 µM) 28.9%. Moreover, the viability, T/C was 54.8% (second compound 3.16 µM, first compound 0.00949 µM); 61.6% (second compound 3.16 µM, first compound 0.03 µM); 26.4% (second compound 3.16 µM, first compound 0.0949 µM); 20.2% (second compound 3.16 µM, first compound 0.3 µM); 22.2% (second compound 3.16 µM, first compound 0.949 µM); 24.9% (second compound 3.16 µM, first compound 3 µM). Moreover, the viability, T/C by setting is: (second compound 10 µM, first compound 0.00949 µM) 47.1%; (second compound 10 µM, first compound 0.03 µM) 49.8%; (second compound 10 µM, first compound 0.0949 µM) 14.4%; (second compound 10 µM, first compound 0.3 µM) 17.9%; (second compound 10 µM, first compound 0.949 µM) 21.1%; (second compound 10 µM, first compound 3 µM) 22.1%.

As for `Cn1ncnc1[C@H]1c2n[nH]c(=O)c3cc(F)cc(c23)N[C@@H]1c1ccc(F)cc1`, the viability, T/C by setting is: (compound 0.000316 µM) 139% and 91.4%; (compound 0.001 µM) 97.3% and 97.9%; (compound 0.00316 µM) 92.7% and 90%; (compound 0.01 µM) 90.3% and 100%; (compound 0.0316 µM) 94% and 102%; (compound 0.1 µM) 85.9% and 102%. The IC50 (curve of compound) was more than 100 nM.

The values above are taken from PubChem BioAssay AID2060329 (Molecular Pharmacology Branch, DTP, NCI, 2025).
